# pIC50: −log10 of the molar value.
# Tested on: NCI-H196 complex spheroid viability
# Assay: Anticancer human tumor NCI-H196 cell line growth inhibition [LSD1];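 further: spheroids exposed to agents for 7 days before readout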;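 on viability, T/C: 100% = DMSO vehicle control viability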
# Settings: for pIC50: curve of first compound; for viability, T/C: stronger effect = lower value
# Procedure, shortened: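 Complex spheroids of tumor cells with HUVEC and human MSCs, exposed to iadademstat combined with other agents. Each agent tested in half-log steps from near clinical Cmax (else 10 microM top), DMSO ≤0.25%.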
# [1] = second compound 0.1 µM, first compound 0.0316 µM
# [2] = second compound 0.1 µM, first compound 0.1 µM
# [3] = second compound 0.1 µM, first compound 0.316 µM
# [4] = second compound 0.1 µM, first compound 1 µM
# [5] = second compound 0.316 µM, first compound 0.0316 µM
# [6] = second compound 0.316 µM, first compound 0.1 µM
# [7] = second compound 0.316 µM, first compound 0.316 µM
# [8] = second compound 0.316 µM, first compound 1 µM
# [9] = second compound 1 µM, first compound 0.0316 µM
# [10] = second compound 1 µM, first compound 0.1 µM
# [11] = second compound 1 µM, first compound 0.316 µM
# [12] = second compound 1 µM, first compound 1 µM
# [13] = second compound 3.16 µM, first compound 0.0316 µM
# [14] = second compound 3.16 µM, first compound 0.1 µM
# [15] = second compound 3.16 µM, first compound 0.316 µM
# [16] = second compound 3.16 µM, first compound 1 µM
# [17] = second compound 10 µM, first compound 0.0316 µM
# [18] = second compound 10 µM, first compound 0.1 µM
# [19] = second compound 10 µM, first compound 0.316 µM
# [20] = second compound 10 µM, first compound 1 µM
# [21] = second compound 0.1 µM, first compound 0.00949 µM
# [22] = second compound 0.1 µM, first compound 0.03 µM
# [23] = second compound 0.1 µM, first compound 0.0949 µM
# [24] = second compound 0.1 µM, first compound 0.3 µM
# [25] = second compound 0.316 µM, first compound 0.00949 µM
# [26] = second compound 0.316 µM, first compound 0.03 µM
# [27] = second compound 0.316 µM, first compound 0.0949 µM
# [28] = second compound 0.316 µM, first compound 0.3 µM
# [29] = second compound 1 µM, first compound 0.00949 µM
# [30] = second compound 1 µM, first compound 0.03 µM
# [31] = second compound 1 µM, first compound 0.0949 µM
# [32] = second compound 1 µM, first compound 0.3 µM
# [33] = second compound 3.16 µM, first compound 0.00949 µM
# [34] = second compound 3.16 µM, first compound 0.03 µM
# [35] = second compound 3.16 µM, first compound 0.0949 µM
# [36] = second compound 3.16 µM, first compound 0.3 µM
# [37] = second compound 10 µM, first compound 0.00949 µM
# [38] = second compound 10 µM, first compound 0.03 µM
# [39] = second compound 10 µM, first compound 0.0949 µM
# [40] = second compound 10 µM, first compound 0.3 µM
smiles,measurement,setting,value
CC1COCCN1c1cc(C2(S(C)(=N)=O)CC2)nc(-c2ccnc3[nH]ccc23)n1 (stereo not given) + NC1CC1c1ccc(-c2cccc(O)c2)cc1,pIC50,second compound 0.1 µM,< 5.00
same,pIC50,second compound 0.316 µM,< 5.00
same,pIC50,second compound 1 µM,< 5.00
same,pIC50,second compound 3.16 µM,< 5.00
same,pIC50,second compound 10 µM,< 5.00
same,"viability, T/C",[1],97.7%
same,"viability, T/C",[2],88.3%
same,"viability, T/C",[3],92.2%
same,"viability, T/C",[4],89.1%
same,"viability, T/C","second compound 0.1 µM, first compound 3.16 µM",73.9%
same,"viability, T/C","second compound 0.1 µM, first compound 10 µM",63.6%
same,"viability, T/C",[5],97.3%
same,"viability, T/C",[6],95.8%
same,"viability, T/C",[7],88%
same,"viability, T/C",[8],89.6%
same,"viability, T/C","second compound 0.316 µM, first compound 3.16 µM",77.1%
same,"viability, T/C","second compound 0.316 µM, first compound 10 µM",64.5%
same,"viability, T/C",[9],98.2%
same,"viability, T/C",[10],93.1%
same,"viability, T/C",[11],108%
same,"viability, T/C",[12],89.2%
same,"viability, T/C","second compound 1 µM, first compound 3.16 µM",67.7%
same,"viability, T/C","second compound 1 µM, first compound 10 µM",62%
same,"viability, T/C",[13],103%
same,"viability, T/C",[14],96.8%
same,"viability, T/C",[15],93.9%
same,"viability, T/C",[16],85.6%
same,"viability, T/C","second compound 3.16 µM, first compound 3.16 µM",70.2%
same,"viability, T/C","second compound 3.16 µM, first compound 10 µM",61.5%
same,"viability, T/C",[17],94.8%
same,"viability, T/C",[18],102%
same,"viability, T/C",[19],93%
same,"viability, T/C",[20],91.6%
same,"viability, T/C","second compound 10 µM, first compound 3.16 µM",71.3%
same,"viability, T/C","second compound 10 µM, first compound 10 µM",64.3%
CCN(c1cc(-c2ccc(CN3CCOCC3)cc2)cc(C(=O)NCc2c(C)cc(C)[nH]c2=O)c1C)C1CCOCC1 + NC1CC1c1ccc(-c2cccc(O)c2)cc1,pIC50,second compound 0.1 µM,< 5.52
same,pIC50,second compound 0.316 µM,< 5.52
same,pIC50,second compound 1 µM,< 5.52
same,pIC50,second compound 3.16 µM,< 5.52
same,pIC50,second compound 10 µM,< 5.52
same,"viability, T/C",[21],93.6%
same,"viability, T/C",[22],91.8%
same,"viability, T/C",[23],98%
same,"viability, T/C",[24],108%
same,"viability, T/C","second compound 0.1 µM, first compound 0.949 µM",107%
same,"viability, T/C","second compound 0.1 µM, first compound 3 µM",118%
same,"viability, T/C",[25],94.5%
same,"viability, T/C",[26],97.8%
same,"viability, T/C",[27],113%
same,"viability, T/C",[28],104%
same,"viability, T/C","second compound 0.316 µM, first compound 0.949 µM",110%
same,"viability, T/C","second compound 0.316 µM, first compound 3 µM",110%
same,"viability, T/C",[29],97.4%
same,"viability, T/C",[30],102%
same,"viability, T/C",[31],102%
same,"viability, T/C",[32],106%
same,"viability, T/C","second compound 1 µM, first compound 0.949 µM",116%
same,"viability, T/C","second compound 1 µM, first compound 3 µM",112%
same,"viability, T/C",[33],98.4%
same,"viability, T/C",[34],99%
same,"viability, T/C",[35],101%
same,"viability, T/C",[36],102%
same,"viability, T/C","second compound 3.16 µM, first compound 0.949 µM",98.9%
same,"viability, T/C","second compound 3.16 µM, first compound 3 µM",103%
same,"viability, T/C",[37],98.6%
same,"viability, T/C",[38],109%
same,"viability, T/C",[39],104%
same,"viability, T/C",[40],104%
same,"viability, T/C","second compound 10 µM, first compound 0.949 µM",105%
same,"viability, T/C","second compound 10 µM, first compound 3 µM",92.9%
Nc1ncn(C2CC(O)C(CO)S2)c(=O)n1 (stereo not given) + NC1CC1c1ccc(-c2cccc(O)c2)cc1,pIC50,second compound 0.1 µM,< 6.52
same,pIC50,second compound 0.316 µM,< 6.52
same,pIC50,second compound 1 µM,< 6.52
same,pIC50,second compound 3.16 µM,< 6.52
same,pIC50,second compound 10 µM,< 6.52
same,"viability, T/C","second compound 0.1 µM, first compound 0.000949 µM",98.2%
same,"viability, T/C","second compound 0.1 µM, first compound 0.003 µM",105%
same,"viability, T/C",[21],108%
same,"viability, T/C",[22],101%
same,"viability, T/C",[23],108%
same,"viability, T/C",[24],102%
same,"viability, T/C","second compound 0.316 µM, first compound 0.000949 µM",107%
same,"viability, T/C","second compound 0.316 µM, first compound 0.003 µM",111%
same,"viability, T/C",[25],112%
same,"viability, T/C",[26],113%
same,"viability, T/C",[27],112%
same,"viability, T/C",[28],113%
same,"viability, T/C","second compound 1 µM, first compound 0.000949 µM",103%
same,"viability, T/C","second compound 1 µM, first compound 0.003 µM",110%
same,"viability, T/C",[29],113%
same,"viability, T/C",[30],109%
same,"viability, T/C",[31],134%
same,"viability, T/C",[32],116%
same,"viability, T/C","second compound 3.16 µM, first compound 0.000949 µM",101%
same,"viability, T/C","second compound 3.16 µM, first compound 0.003 µM",102%
same,"viability, T/C",[33],106%
same,"viability, T/C",[34],99.3%
same,"viability, T/C",[35],117%
same,"viability, T/C",[36],119%
same,"viability, T/C","second compound 10 µM, first compound 0.000949 µM",101%
same,"viability, T/C","second compound 10 µM, first compound 0.003 µM",109%
same,"viability, T/C",[37],103%
same,"viability, T/C",[38],102%
same,"viability, T/C",[39],103%
same,"viability, T/C",[40],99.5%
O=C(C=Cn1cnc(-c2cc(C(F)(F)F)cc(C(F)(F)F)c2)n1)NNc1cnccn1 + NC1CC1c1ccc(-c2cccc(O)c2)cc1,pIC50,second compound 0.1 µM,> 8.50
same,pIC50,second compound 0.316 µM,> 8.50
same,pIC50,second compound 1 µM,> 8.50
same,pIC50,second compound 3.16 µM,> 8.50
same,pIC50,second compound 10 µM,> 8.50
same,"viability, T/C","second compound 0.1 µM, first compound 0.00316 µM",32.5%
same,"viability, T/C","second compound 0.1 µM, first compound 0.01 µM",27.1%
same,"viability, T/C",[1],19.8%
same,"viability, T/C",[2],14.6%
same,"viability, T/C",[3],10.4%
same,"viability, T/C",[4],7.16%
same,"viability, T/C","second compound 0.316 µM, first compound 0.00316 µM",33.1%
same,"viability, T/C","second compound 0.316 µM, first compound 0.01 µM",25.6%
same,"viability, T/C",[5],20.7%
same,"viability, T/C",[6],12.4%
same,"viability, T/C",[7],10.7%
same,"viability, T/C",[8],8.26%
same,"viability, T/C","second compound 1 µM, first compound 0.00316 µM",31.3%
same,"viability, T/C","second compound 1 µM, first compound 0.01 µM",31.5%
same,"viability, T/C",[9],19.6%
same,"viability, T/C",[10],12.1%
same,"viability, T/C",[11],10.6%
same,"viability, T/C",[12],9.55%
same,"viability, T/C","second compound 3.16 µM, first compound 0.00316 µM",45.6%
same,"viability, T/C","second compound 3.16 µM, first compound 0.01 µM",31.5%
same,"viability, T/C",[13],15.9%
same,"viability, T/C",[14],14%
same,"viability, T/C",[15],10.2%
same,"viability, T/C",[16],10.3%
same,"viability, T/C","second compound 10 µM, first compound 0.00316 µM",36.2%
same,"viability, T/C","second compound 10 µM, first compound 0.01 µM",29.2%
same,"viability, T/C",[17],18.3%
same,"viability, T/C",[18],15.9%
same,"viability, T/C",[19],12.4%
same,"viability, T/C",[20],11.9%
